Results: patent publication US20250057963A1, “DISCOVERY OF PIPERLONGUMINE AS A NOVEL E3 LIGASE LIGAND” (University of Florida Research Foundation, Incorporated, priority 2021, published 2025)
Entries after “also recorded” stand apart in the source; their conditions may differ.

Tests used:
[1] = target: T1, E3 ligases interacting with V5-TurboID-CDK9 (Homo sapiens, UniProt Q14145); test: TurboID-bait assay (V5-TurboID-CDK9 in 293T cells) with LC-MS/MS or immunoblot; format: cell-based; conditions: with vs without 955, biotin present
T1 construct: The biotinylated proteins identified by MS in 293T cells; expressed in transfected cells; host or cells: 293T
T1 sequence (Q14145 whole entry): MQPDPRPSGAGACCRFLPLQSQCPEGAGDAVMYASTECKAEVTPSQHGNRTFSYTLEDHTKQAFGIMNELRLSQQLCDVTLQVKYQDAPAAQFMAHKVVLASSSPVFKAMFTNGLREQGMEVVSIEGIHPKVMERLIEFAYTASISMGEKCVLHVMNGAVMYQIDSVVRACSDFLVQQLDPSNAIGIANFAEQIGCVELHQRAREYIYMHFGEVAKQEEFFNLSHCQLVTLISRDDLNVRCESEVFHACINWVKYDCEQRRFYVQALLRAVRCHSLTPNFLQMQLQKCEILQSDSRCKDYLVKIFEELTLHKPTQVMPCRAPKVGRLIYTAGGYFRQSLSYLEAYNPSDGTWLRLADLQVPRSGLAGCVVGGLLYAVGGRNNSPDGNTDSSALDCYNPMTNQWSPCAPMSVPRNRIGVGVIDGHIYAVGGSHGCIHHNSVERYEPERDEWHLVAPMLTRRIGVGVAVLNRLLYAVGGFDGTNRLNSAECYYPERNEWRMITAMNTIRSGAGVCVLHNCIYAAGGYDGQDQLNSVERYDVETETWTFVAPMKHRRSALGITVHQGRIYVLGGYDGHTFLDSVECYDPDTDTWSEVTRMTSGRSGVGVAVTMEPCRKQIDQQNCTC
T1 sequence (P50750 whole entry partner): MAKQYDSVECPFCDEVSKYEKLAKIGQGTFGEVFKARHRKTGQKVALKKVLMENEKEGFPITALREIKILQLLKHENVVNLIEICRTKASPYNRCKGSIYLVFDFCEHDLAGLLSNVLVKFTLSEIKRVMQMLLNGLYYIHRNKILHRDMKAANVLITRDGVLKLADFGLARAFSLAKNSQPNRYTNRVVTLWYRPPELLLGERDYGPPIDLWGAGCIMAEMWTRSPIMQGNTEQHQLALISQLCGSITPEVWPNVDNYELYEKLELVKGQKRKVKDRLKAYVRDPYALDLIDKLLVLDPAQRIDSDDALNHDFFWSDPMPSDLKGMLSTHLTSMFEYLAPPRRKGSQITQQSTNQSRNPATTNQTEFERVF
From the text: (§1) Construction of the pcDNA3-V5-TurboID-CDK9 plasmid. To build the TurboID-bait assay, we first constructed a V5-TurboID-tagged CDK9 plasmid (pDL2518) through Gibson assembly method. The template plasmids HA-CDK9 (a gift from Andrew Rice, plasmid #28102) and V5-TurboID-NES_pCDNA3 (a gift from Alice Ting, plasmid #107169) were purchased from Addgene. The primer pair (5′-cagtctgcggtctgccgaaaagctgcag[…]-3′ and 5′-cagggtcaggcgctccaggggaggcag[…]-3′) and the template HA-CDK9 were used to clone the CDK9 fragment. The two primer pairs: pair-1 (5′-[…]ctgcctcccctggagcgcctgaccctg-3′ and 5′-[…]-3′); pair-2 (5′-[…]-3′ and 5′-[…]ctgcagcttttcggcagaccgcagactg-3′) and the template V5-TurboID-NES_pCDNA3 were used to clone the V5-TurbolD fragment. The PCR fragments were assembled using NEBuilder® HiFi DNAAssembly Master Mix (Cat. No. E2621, NEB, Ipswich, MA, USA). DNA sequences in all these plasmids were authenticated by automatic sequencing.
(§2) TurboID-bait assay. 293T (6×10^5 for WB detection and 1.2×10^6 for MS) cells were transfected with plasmid V5-TurboID-CDK9 using Lipofectamine 2000 as previously described (Lv et al., 2021). […] Then the cells were harvested and lysed in 1×PBS buffer (Cat. #D1408, Sigma-Aldrich). After centrifugation at 20,000×g for 60 min at 4° C., the supernatant soluble fraction was used for further analysis. […]

[2] = tested on: E3 ligases interacting with V5-TurboID-CDK9; test: as above; format: cell-based, Human; conditions: MS of biotinylated proteins with vs without 955
From the text: as §1, §2

CDK9 = CDK9 (Homo sapiens, UniProt P50750); test: TMT-based global proteomics in MOLT4 cells; format: cell-based; parameters: endogenous in cells; host or cells: MOLT4
Chain of CDK9 (P50750 whole entry): as the sequence (P50750 whole entry partner) above
From the text: Sample Preparation and LC-MS/MS analysis. Total protein from cell pellets was reduced, alkylated, and purified by chloroform/methanol extraction prior to digestion with sequencing grade modified porcine trypsin (Cat. No. V5111, Promega). Tryptic peptides were labeled using tandem mass tag isobaric labeling reagents (Cat. No. A34808, ThermoFisher) following the manufacturer's instructions and combined into one 11-plex sample group. The labeled peptide multiplex was separated into 46 fractions on a 100×1.0 mm Acquity BEH C18 column (Waters) using an UltiMate 3000 UHPLC system (Thermo) with a 50 min gradient from 99:1 to 60:40 bufferA:B (Buffer A: 0.1% formic acid, 0.5% acetonitrile; Buffer B: 0.1% formic acid, 99.9% acetonitrile. Both buffers adjusted to pH 10 with ammonium hydroxide for offline separation) ratio under basic pH conditions, and then consolidated into 18 super-fractions. […]
Data processing and analysis. Proteins were identified and MS3 reporter ions quantified using MaxQuant (version 2.0.3.0; Max Planck Institute) against the Homo sapiens UniprotKB database (March 2021) with a parent ion tolerance of 3 ppm, a fragment ion tolerance of 0.5 Da, and a reporter ion tolerance of 0.003 Da. Scaffold Q+S (Proteome Software) was used to verify MS/MS based peptide and protein identifications (protein identifications were accepted if they could be established with less than 1.0% false discovery and contained at least 2 identified peptides; protein probabilities were assigned by the Protein Prophet algorithm (Nesvizhskii et al., 2003) and to perform reporter ion-based statistical analysis. Protein TMT MS3 reporter ion intensity values were assessed for quality using ProteiNorm for a systematic evaluation of normalization methods (Graw et al., 2020). Cyclic loess normalization (Ritchie et al., 2015) was utilized since it had the highest intragroup correlation and the lowest variance amongst the samples. […]

COc1cc(/C=C/C(=O)N2CCC=CC2=O)cc(OC)c1OCCN1CCN(C(=O)CN2CCC(C(=O)Nc3ncc(SCc4ncc(C(C)(C)C)o4)s3)CC2)CC1 [compound 955, (E)-N-(5-(((5-(tert-butyl)oxazol-2-yl)methyl)thio)thiazol-2-yl)-1-(2-(4-(2-(2,6-dimethoxy-4-(3-oxo-3-(6-oxo-3,6-dihydropyridin-1(2H)-yl)prop-1-en-1-yl)phenoxy)ethyl)piperazin-1-yl)-2-oxoethyl)piperidine-4-carboxamide]
KEAP1 pulled down (immunoblot validation) [1]: more KEAP1 could be pulled down; also recorded: significantly more KEAP1 can be pulled down | number of E3 ligases recruited to CDK9 [2]: 6 | proteins degraded or downregulated after short treatment (global proteome) (CDK9; 0.1 μM 955, 1 hour): only degraded CDK9 and CDK10 and downregulated one downstream protein FYTTD1 | CDK9 protein level (global proteome) (CDK9; 0.1 μM 955 for 1 h and 6 h, 1 μM SNS-032 for 6 h): reduced the protein level of CDK9; also recorded: significant reduction of CDK9
